Broadly, the MIC is the lowest concentration found to suppress growth. Read a low MIC as greater potency.

Structures are written as SMILES. Converted amounts (≈) assume the structure as drawn.

Drawing on ChEMBL document CHEMBL1649432, “Chromosomal integration of the extended-spectrum beta-lactamase gene blaCTX-M-15 in Salmonella enterica serotype Concord isolates from internationally adopted children” (2009), this text covers MIC and Activity for four compounds.

Assay type in all cases: functional, Salmonella enterica subsp. enterica serovar Concord
Assay [1] can be described thus: Antimicrobial activity against Salmonella enterica serotype concord expressing extended-spectrum beta-lactamase SHV-12 by disc diffusion method. A general note: In agar diffusion tests the substance spreads into inoculated agar from a disc or well.
Assay [2] can be described thus: Antimicrobial activity against Salmonella enterica serotype concord expressing extended-spectrum beta-lactamase CTX-M-15 by disc diffusion method.
Assay [3] in a line: Antimicrobial activity against Salmonella enterica serotype concord expressing extended-spectrum beta-lactamase SHV-12 by Etest.
A short description of assay [4]: Antimicrobial activity against Salmonella enterica serotype concord expressing extended-spectrum beta-lactamase CTX-M-15 by Etest.

On to `CO/N=C(\C(=O)N[C@@H]1C(=O)N2C(C(=O)[O-])=C(C[N+]3(C)CCCC3)CS[C@H]12)c1csc(N)n1` [CEFEPIME], for which the minimum inhibitory concentration (MIC) is 8 µg/mL (≈ 16.6 µM) in assay [1] and > 256 µg/mL in assay [2] (Salmonella enterica). For the compound `CC(C)(O/N=C(\C(=O)N[C@@H]1C(=O)N2C(C(=O)[O-])=C(C[n+]3ccccc3)CS[C@H]12)c1csc(N)n1)C(=O)O` [CEFTAZIDIME], the minimum inhibitory concentration (MIC) in assay [3] and in assay [4] was > 256 µg/mL in each case. `CO/N=C(\C(=O)N[C@@H]1C(=O)N2C(C(=O)O)=C(CSc3nc(=O)c(O)nn3C)CS[C@H]12)c1csc(N)n1` [CEFTRIAXONE]: the MIC in assay [3] is 64 µg/mL (≈ 115 µM); in assay [4], > 256 µg/mL.

As to `O=C(O)c1cn(C2CC2)c2cc(N3CCNCC3)c(F)cc2c1=O` [CIPROFLOXACIN], the Activity in assay [2] turned out to be 0.25 µg/mL.
